Measurements from ChEMBL document CHEMBL1144237, “Novel HCV NS5B polymerase inhibitors derived from 4-(1',1'-dioxo-1',4'-dihydro-1'lambda(6)-benzo[1',2',4']thiadiazin-3'-yl)-5-hydroxy-2H-pyridazin-3-ones. Part 5: Exploration of pyridazinones containing 6-amino-substituents” (Bioorg Med Chem Lett, 2008).

Assay: Apparent permeability across human Caco-2 cell membrane
Type: ADME, cell-based

Structure (SMILES)	Papp [×10⁻⁶ cm/s]
CC(C)CCn1nc(-c2cccs2)c(O)c(C2=Nc3ccc(NS(C)(=O)=O)cc3S(=O)(=O)N2)c1=O	0.02
CS(=O)(=O)Nc1ccc2c(c1)S(=O)(=O)N=C(c1c(O)c(N3CCCC3)nn(CCC3CC3)c1=O)N2	0.22
CC(C)(C)CCn1nc(N2CCCC2)c(O)c(C2=NS(=O)(=O)c3cc(NS(C)(=O)=O)ccc3N2)c1=O	0.37
CC(C)CCn1nc(N(C)C(C)C)c(O)c(C2=NS(=O)(=O)c3cc(NS(C)(=O)=O)ccc3N2)c1=O	0.77
CC(C)CCn1nc(N2CCOCC2)c(O)c(C2=NS(=O)(=O)c3cc(NS(C)(=O)=O)ccc3N2)c1=O	0.021
CC(C)CCn1nc(N2CCCC2)c(O)c(C2=Nc3ccc(NS(C)(=O)=O)cc3S(=O)(=O)N2)c1=O	0.32
CCN(CC)c1nn(CCC(C)C)c(=O)c(C2=NS(=O)(=O)c3cc(NS(C)(=O)=O)ccc3N2)c1O	0.3
CCCN(C)c1nn(CCC(C)C)c(=O)c(C2=NS(=O)(=O)c3cc(NS(C)(=O)=O)ccc3N2)c1O	0.12
